From patent US12195372B2 (priority 2018, dated 2025)
Where two headings read alike, the source gives them in different places.

Details: room temperature (20-35° C.), atmospheric pressure

Question: Which results are given for benzalkonium-perchlorate [BNZ-ClO4]?
Answer: ClO4 equilibrium conc. (matrix: deionized water): 0.20 mM; ClO4 equilibrium conc. (matrix: ethanol): 231 mM; ClO4 equilibrium conc. (matrix: salt water): 0.81 mM
